Results reported in patent US8541455B2, “Derivatives of 2-pyridin-2-yl-pyrazol-3(2H)-one, preparation and therapeutic use thereof as HIF activators” (Sanofi, priority 2008, dated 2013).
pEC50: −log10 of the molar value. Counter-ions that a name gives are not always drawn.

What was measured:
HIF1-alpha = assay: Measurement of the stabilization of HIF1-alpha in HEKEA cells (beta-galactosidase complementation, luminescence); type: cell-based, human; details: HEKEA_HIF1-alphaPLBL cells, 6 hours incubation under normoxia; concentration that produces 50% of the maximum response of this same compound
Source text: Furthermore, a subject of the invention is also a uniform test process for the direct measurement by beta-galactosidase complementation of the amount of HIF1-alpha protein in the nucleus of cells, preferably HEK cells, after treating the said cells with one or more test compounds, which consists in: • (a) inoculating, preferably in 384-well plates, the said cells in a suitable culture medium, preferably 1% foetal calf serum (abbreviated as FCS); • (b) adding the test compound(s) at a suitable concentration in a suitable solvent to the cells previously inoculated in the said culture medium; preferably the test compounds are diluted in 0.1% FCS; • (c) incubating the said cells thus prepared in an indicator at about 37° C., advantageously for about 6 hours; • (d) lysing the cells with a lysis buffer containing a chemiluminescent substrate for beta-galactosidase; • (e) incubating in the absence of light, before reading and measuring the luminescence, which is a function of the beta-galactosidase activity.
Many tests exist describing the indirect measurement of the activity of HIF via reporter gene systems (HRE-luciferase) or via the measurement of HIF-induced proteins (for example VEGF or EPO). Furthermore, the only tests that allow direct measurement of the amount of HIF1-alpha protein in cells are tests using antibodies, for instance Western blotting comprising phases of cell extraction (total lysates or nuclear extracts) that are consuming in terms of cells and time, thus limiting the compound screening capacity. The object was thus to develop a sensitive screening test, adaptable to 384-well plates, for directly measuring the amount of HIF1-alpha protein in the nucleus of cells. This test was established in HEK cells ([…]).
The test is a cell test based on the principle of enzyme complementation, the enzyme used herein being beta-galactosidase. HEKEA cells are HEK cells stably expressing, and restricted in their nucleus, mutant beta-galactosidase (omega fragment, also known as EA) (line sold by DiscoverX). This construct makes it possible to obtain beta-galactosidase activity only when the protein comprising the Prolabel complementation fragment has migrated into the nucleus.
The protein of interest comprising the Prolabel fragment is in this case an HIF1-alpha or HIF1-alpha mutated at the two prolines 402 and 564 replaced with alanines, is C-terminal fused via molecular biology (DiscoverX vector sold by Clontech) with the small complementation peptide fragment (Prolabel or ED, about 4 kDa). The vector coding for the chimeric protein HIF1-alpha_Prolabel is then transfected into HEKEA cells to obtain stable clones (HEKEA_HIF1-alphaPLBL).
The amount of C-terminal Prolabel-“labelled” HIF1-alpha protein obtained after treating the cells to hypoxia or compounds that are potentially HIF activators is measured by adding to the cells a lysis buffer containing a chemiluminescent substrate for beta-galactosidase.
The measurement of the beta-galactosidase activity will be proportional to the amount of Prolabel and thus of HIF1-alpha that has migrated into the nucleus of the cells.
• 1.3.1 Experiment Plan • 1) Inoculation of the cells on D0 • 2) Adherence for 24 hours under normoxia • 3) Preparation and addition of the products (Biomek 2000 and FX) on D+1 • 4) Incubation under normoxia for 6 hours • 5) Reading of the plates (by luminescence)
The cells are inoculated with Multidrop in white, opaque-bottomed 384-well plates (Greiner ref 3704), in 30 μl of culture medium (1% FCS) at 10 000 cells/well (cell plate). • 1.3.3 Treatment • Preparation of the Dilution Plate (DL Plate)
The test products are prepared at 3×10^−2 M in 100% DMSO and then diluted to 3×10^−4 M in medium containing 0.1% FCS (10 μl in 990 μl of MEM). They are then deposited by hand into column 12 of a round-bottomed 96-well plate (200 μl of each compound) known as the dilution plate (dl). […]

[1] = tested on: EPO secretion by Hep3B cells; assay: Measurement of the secretion of EPO by Hep3B hepatocytes (ELISA on supernatant); type: cell-based; details: Homo sapiens, 18 hours incubation under normoxia, EPO in supernatant, 50% of the maximum response of this same compound
Source text: (§1) 2. Measurement of the Secretion of VEGF and EPO by Hep3B Hepatocytes 2.1. Object
(§2) HIF is a transcription factor involved in the adaptation of cells to hypoxia. Since the genes activated by HIF are involved in the adaptive response of cells to hypoxia and of tissues to ischaemia, the object is to identify and characterize compounds that stabilize HIF1-alpha in cells in order to amplify or mimic its beneficial effect. HIF1-alpha was identified following the analysis of the EPO gene promoter, which makes this protein one of the first markers of HIF1-alpha activation. Moreover, VEGF is also identified in the literature as one of the main markers of HIF activation. It is for this reason that measurement of these two proteins was selected for characterizing compounds that are HIF activators in Hep3B cells.
(§3) The object was thus to develop a sensitive screening test, adaptable to 96-well plates, for directly measuring the amount of VEGF and EPO in the supernatant of the Hep3B cells (cells derived from a human hepatocarcinoma) in response to the potential HIF activators.
(§4) The test is an ELISA test for measuring VEGF and EPO in the supernatant of Hep3B cells treated under hypoxia or with deferoxamine as controls or with the potential HIF activators. The test was adapted to a 96-well plate, allowing greater compound screening capacity.
(§5) • 2.3.1 Experiment Plan • 1) Inoculation of the cells on D0 • 2) Adherence for 6 hours under normoxia • 3) Preparation and addition of the products (Biomek 2000 and FX) • 4) Incubation under normoxia for 18 hours • 5) EPO and VEGF assay in the supernatant on D+1 • 2.3.2 Inoculation of the Cells
(§6) The cells are subcultured into 100 μl of culture medium (10% FCS) in black, opaque-bottomed 96-well plates (reference Costar 3916) at 30 000 cells/well, with Multidrop. • 2.3.3 Treatment of the Cells
(§7) The test products are prepared at 10^−2 M in 100% DMSO and then diluted to […] in medium containing 0.1% FCS (6 μl in 194 μl of MEM). 200 μl of each compound are deposited in column 12 of a 96-well plate. Dilution ranges from […] to 3×10^−8M are prepared with Biomek 2000 (programme: range of 9 points in series). 100 μl of MEM 0.1% FCS and Deferoxamine 5×10^−3M are added as controls to column 3 and, respectively, to wells A,B,C,D and wells E,F,G,H • DL Plate Distribution in Cell Plates
(§8) The medium of the cells inoculated the day before into 96-well plates is changed for 90 μl of medium containing 0.1% FCS and 10 μl are distributed with FX 96 from the 96-well DL plates to the cell plates.
(§9) The cell plates thus treated are placed for 18 hours in an incubator at 37° C. (ambient O2, 6% CO2).
(§10) The supernatants (80 μl) of the Hep3B cells in the 96-well plates treated with the potential HIF activators are recovered with a multichannel pipette for simultaneous assay of the VEGF and the EPO by ELISA according to the supplier's instructions (Kit EPO Mesoscale (ref K15122B-2)).
(§11) The activating activity of a compound with respect to HIF is given by the concentration that produces 50% of the maximum response of this same compound in Table IV below.

[2] = tested on: VEGF secretion by Hep3B cells; assay: Measurement of the secretion of VEGF by Hep3B hepatocytes (ELISA on supernatant); type: cell-based; details: Homo sapiens, 18 hours incubation under normoxia, VEGF in supernatant, 50% of the maximum response of this same compound
Source text: as §1, §2, §3, §4, §5, §6, §7, §8, §9, §10, §11

In the case of `CCN(c1ccccc1)S(=O)(=O)c1ccc(-n2[nH]c(C)c(Cc3ccc(Cl)cc3Cl)c2=O)nc1` [Compound 14], the pEC50 (HIF1-alpha) was 5.42, the pEC50 [1] was 6.52 and the melting point was 178 °C.

`CCN(c1ccccc1)S(=O)(=O)c1ccc(-n2[nH]c(C)c(Cc3c(F)cccc3Cl)c2=O)nc1` [Compound 20, 6-[4-(2-chloro-6-fluorobenzyl)-3-methyl-5-oxo-2,5-dihydro-1H-pyrazol-1-yl]-N-ethyl-N-phenylpyridine-3-sulfonamide] showed a pEC50 [1] of 6.00 and a pEC50 [2] of 5.96.

`CCN(c1ccccc1)S(=O)(=O)c1ccc(-n2[nH]c(C)c(Cc3cccc(OCCOC)c3)c2=O)nc1` [Compound 38, N-ethyl-6-{4-[3-(2-methoxyethoxy)benzyl]-3-methyl-5-oxo-2,5-dihydro-1H-pyrazol-1-yl}-N-phenylpyridine-3-sulfonamide] showed a pEC50 (HIF1-alpha) of 5.33, a pEC50 [1] of 6.00 and a melting point of 126 °C.

With `CCN(c1ccccc1)S(=O)(=O)c1ccc(-n2[nH]c(C)c(Cc3ccc(S(C)(=O)=O)cc3)c2=O)nc1` [Compound 39] the pEC50 (HIF1-alpha) was 5.74, the pEC50 [1] was 5.70 and the melting point was 224 °C.

`CCN(c1ccccc1)S(=O)(=O)c1ccc(-n2[nH]c(C)c(Cc3ccccc3)c2=O)nc1` [Compound 42] gave a pEC50 (HIF1-alpha) of 5.32, a pEC50 [1] of 5.96 and a pEC50 [2] of 5.89. It also gave a melting point of 212 °C.

Work on `CCN(c1ccccc1)S(=O)(=O)c1ccc(-n2[nH]c(C)c(Cc3cccnc3)c2=O)nc1` [Compound 43] yielded a pEC50 (HIF1-alpha) of 5.51, a pEC50 [1] of 5.82 and a pEC50 [2] of 5.77.

Compound `CCN(c1ccccc1)S(=O)(=O)c1ccc(-n2[nH]c(C)c(Cc3cc(OC)ccc3OC)c2=O)nc1` [Compound 44] has a pEC50 (HIF1-alpha) of 5.51, a pEC50 [1] of 5.72 and a pEC50 [2] of 5.68. For the same compound, the melting point was 140 °C.

Compound `CCN(c1ccccc1)S(=O)(=O)c1ccc(-n2[nH]c(C)c(Cc3cc(OC)cc(OC)c3)c2=O)nc1` [Compound 47] has a pEC50 (HIF1-alpha) of 5.96, a pEC50 [1] of 5.70 and a pEC50 [2] of 5.55. For the same compound, the melting point was 162 °C.

Compound `CCN(c1ccccc1)S(=O)(=O)c1ccc(-n2[nH]c(C)c(Cc3ccc(O)cc3)c2=O)nc1` [Compound 48] has a pEC50 (HIF1-alpha) of 5.37, a pEC50 [1] of 5.96 and a pEC50 [2] of 5.72. For the same compound, the melting point was 208 °C.

Compound `CCN(c1ccccc1)S(=O)(=O)c1ccc(-n2[nH]c(C)c(Cc3cccc(N(C)C)c3)c2=O)nc1` [Compound 53, 6-{4-[3-(dimethylamino)benzyl]-3-methyl-5-oxo-2,5-dihydro-1H-pyrazol-1-yl}-N-ethyl-N-phenylpyridine-3-sulfonamide] has a pEC50 (HIF1-alpha) of 5.59, a pEC50 [1] of 6.05 and a pEC50 [2] of 5.49. The melting point was 122 °C.

`CCN(c1ccccc1)S(=O)(=O)c1ccc(-n2[nH]c(C)c(Cc3ccc(OC)cc3)c2=O)nc1` [Compound 54, N-ethyl-6-[4-(4-methoxybenzyl)-3-methyl-5-oxo-2,5-dihydro-1H-pyrazol-1-yl]-N-phenylpyridine-3-sulfonamide] gave a pEC50 (HIF1-alpha) of 5.19, a pEC50 [1] of 6.35 and a pEC50 [2] of 6.52. It also gave a melting point of 188 °C.

For `CCN(c1ccccc1)S(=O)(=O)c1ccc(-n2[nH]c(C)c(Cc3cccc(OCCN(C)C)c3)c2=O)nc1` [Compound 56, 6-(4-{3-[2-(dimethylamino)ethoxy]benzyl}-3-methyl-5-oxo-2,5-dihydro-1H-pyrazol-1-yl)-N-ethyl-N-phenylpyridine-3-sulfonamide hydrochloride], the pEC50 (HIF1-alpha) was 5.68, the pEC50 [1] was 5.70 and the pEC50 [2] was 5.60.

`CCCc1[nH]n(-c2ccc(S(=O)(=O)N(CC)c3ccccc3)cn2)c(=O)c1Cc1ccccc1` [Compound 68, 6-(4-benzyl-5-oxo-3-propyl-2,5-dihydro-1H-pyrazol-1-yl)-N-ethyl-N-phenylpyridine-3-sulfonamide] showed a pEC50 (HIF1-alpha) of 5.82, a pEC50 [1] of 6.40 and a pEC50 [2] of 6.30. It also gave a melting point of 180 °C.

With `CCN(c1ccccc1)S(=O)(=O)c1ccc(-n2[nH]c(C)c(CCc3ccccc3)c2=O)nc1` [Compound 74, N-ethyl-6-[3-methyl-5-oxo-4-(2-phenylethyl)-2,5-dihydro-1H-pyrazol-1-yl]-N-phenylpyridine-3-sulfonamide] the pEC50 (HIF1-alpha) was 5.43, the pEC50 [1] was 6.52 and the melting point was 158 °C.

`CCN(c1ccccc1)S(=O)(=O)c1ccc(-n2[nH]c(C)c(C(C)(C)c3ccccc3)c2=O)nc1` [Compound 77, N-ethyl-6-[3-methyl-4-(1-methyl-1-phenylethyl)-5-oxo-2,5-dihydro-1H-pyrazol-1-yl]-N-phenylpyridine-3-sulfonamide] gave a pEC50 (HIF1-alpha) of 5.32, a pEC50 [1] of 5.85 and a pEC50 [2] of 5.89. The melting point was 122 °C.

`CCN(c1ccccc1)S(=O)(=O)c1ccc(-n2[nH]cc(Cc3ccccc3)c2=O)nc1` [Compound 93, 6-(4-benzyl-5-oxo-2,5-dihydro-1H-pyrazol-1-yl)-N-ethyl-N-phenylpyridine-3-sulfonamide] gave a pEC50 (HIF1-alpha) of 6.46, a pEC50 [1] of 6.40 and a pEC50 [2] of 6.40.

In the case of `CC(C)(C)NS(=O)(=O)c1ccc(-n2[nH]cc(Cc3cccnc3)c2=O)nc1` [Compound 98B, N-tert-butyl-6-[5-oxo-4-(pyridin-3-ylmethyl)-2,5-dihydro-1H-pyrazol-1-yl]pyridine-3-sulfonamide hydrochloride], the pEC50 (HIF1-alpha) was 5.60.
